Results reported in patent US7258999B2, “PTH responsive gene” (Wyeth, priority 2002, dated 2007).

Key:
[1] = system: Ovariectomized Rats with Established Osteopenia; assay: pQCT total and trabecular density (BMD) of proximal tibia in OVX rats; format: in vivo, rat; settings: for ΔTotal Density / ΔTrabecular Density: 40 μg/kg sc, mean ± SEM
Procedure: The total density of the proximal tibia was evaluated in anesthetized rats using peripheral quantitative computed tomography (pQCT) with XCT-960M (Stratec Medizintechnik, Pforzheim, Germany). The baseline and post-treatment measurements were performed in anesthetized rats as follows: The right hind limb was passed through a polycarbonate tube with a diameter of 25 mm and taped to an acrylic frame with the ankle joint at a 90° angle and the knee joint at 180°. The polycarbonate tube was affixed to a sliding platform that maintained it perpendicular to the aperture of the pQCT. The platform was adjusted so that the distal end of the femur and the proximal end of the tibia would be in the scanning field. A two dimensional scout view was run for a length of 10 mm and a line resolution of 0.2 mm. […] The pQCT scan was initiated 3.4 mm distal from this point. […] A region of interest including the tibia but excluding the fibula was outlined. The soft tissue was automatically removed using an iterative algorithm. The density of the remaining bone (Total density) was reported in mg/cm^3. The change in total density was calculated for each animal by subtracting post-treatment and baseline total density values.
Female Wister rats 4 weeks of age were treated with vehicle (saline) and human PTH (1-34) at a dose of 40 μg/kg of body weight for eight days. Prior to PTH administration animals were ovariectomized (OVX). Three weeks post OVX total BMD was measured to determine if osteopenia was established. Subcutaneous injection of PTH once a day represented intermittent administration of PTH, while osmotic pump with release rate of 40 μg/kg/day implanted under the skin represented continuous way of PTH administration. On the eight day of treatment, 6 hours post treatment animals were scarified and samples were collected for further analysis. Each treatment group contained 8 animals.
PTH (1-34) in a dose of 40 μg/kg was administered for eight days to the 3 weeks OVX rats in intermitted and continuous manner to induce anabolic and catabolic PTH effects respectively. As described in General Method section, intermittent administration of PTH was presented by once a day subcutaneous injection of PTH while continues administration was presented with osmotic pumps implanted under the skin with release rate of 40 μg/kg a day. Total bone mineral density was measured using pQCT. Intermittent PTH injection induced significant increases in total BMD, with Δ BMD of […] (FIG. 1). […] Thus, PTH exerts its effect on bone anabolic and catabolic (i.e., causing a decrease in BMD) depending of the way of its administration.
In order to examine whether changes in PAIGB expression with intermittent PTH treatment correlates with effects of PTH on bone, samples from rats treated with PTH for 2, 4 and 8 days were subjected to BMD measurements for both total and trabecular bone (trabecular density of proximal tibia was measured). Two days PTH treatment increases expression of PAIGB. At the same time point significant increase in trabecular BMD (Δ trabecular density: 6.98+/−17.90 with PTH treatment vs −27.1+/−9.27 with vehicle treatment) was detected without any significant changes in total BMD (Δ total density: −9.15+/−2.94 PTH vs 0.69+/−4.10 vehicle) (Table 1).

PAIGB mRNA = assay: In situ hybridization of PAIGB mRNA in mouse calvariae; format: in vivo; settings: Swiss Webster mice, 100 μg/kg/day sc, 30 days
Procedure: In situ analysis of PAIGB mRNA expression can be assessed in various animal species including human bone biopsy samples or from mouse, rat, dog bone samples etc., that have been treated with bone forming agents. Swiss Webster mice that have been treated with 100 μg/kg/day PTH 1-34 subcutaneously or 30 days. Mouse calvariae were gently dissected and fixed in 4% paraformaldehyde. Following fixation, the bones were decalcified in TBD-2 decalcifying agent (Shandon Lipshaw, Pittsburgh, Pa.) for 7-8 hrs then dehydrated in graded alcohol. The calvariae was subsequently bisected perpendicular to the sagittal suture through the central portion of the parietal bones parallel to the lambdoidal and coronal sutures and embedded in paraffin (femur and tibia samples are embedded longitudinally in paraffin). Four to six 5 μm-thick representative, non-consecutive step sections were cut for further analysis. Selected sections were stained with hematoxylin and eosin (Shandon Lipshaw, Pittsburgh, Pa.) and adjacent section were used for in situ hybridization. […] The expression of mRNA are evaluated using a Nikon microscope with either bright or dark field.

[2] = four days treatment, listed as HPTH (1–34)
[3] = four days treatment, listed as PTH
[4] = two days treatment, listed as HPTH (1–34)
[5] = two days treatment, listed as PTH

human PTH (1-34)
change in total BMD ([1]; continuous: osmotic pump 40 μg/kg a day, eight days, 3 weeks OVX rats): did not induce any changes | ΔTotal Density [1, 2]: -10.56 ± 3.11 mg/mL | ΔTrabecular Density [1, 2]: 8.70 ± 9.98 mg/mL | ΔTotal Density [1, 3]: 10.56 ± 3.11 mg/mL | ΔTrabecular Density [1, 3]: 8.70 ± 9.98 mg/mL | Δ BMD (total BMD) ([1]; intermittent: 40 μg/kg once a day sc, eight days, 3 weeks OVX rats): 80 mg/cm³ | ΔTotal Density [1, 4]: -9.15 ± 2.94 mg/mL | ΔTrabecular Density [1, 4]: 6.98 ± 17.90 mg/mL | ΔTotal Density [1, 5]: -9.15 ± 2.94 mg/mL | ΔTrabecular Density [1, 5]: 6.98 ± 17.90 mg/mL | PAIGB mRNA expression in calvariae (in situ hybridization) (PAIGB mRNA): induced in osteoblastic cells adjacent to the bone surface in the periosteum
